Assay results published in ChEMBL document CHEMBL1141837, “New steroidal alkaloids from the roots of buxus sempervirens” (1999).
Activity calls are given as the source filed them. No cut-off for these calls is given here.

tested on: Lemna minor; experiment: Phytotoxicity against Lemna minor L. at 50 ppm; assay type: functional

Row | Structure (SMILES) | Activity
1 | CC(=O)O[C@H]1C[C@@H]2[C@@]3(CC4=C[C@@H](O)[C@H](NC(=O)c5ccccc5)C(C)(C)[C@@H]41)O[C@H]3C[C@]1(C)[C@@H]([C@H](C)N(C)C)CC[C@@]21C | 57%
2 | CN[C@H]1CC[C@]23C[C@]24CC[C@]2(C)C(=O)CC[C@@]2(C)[C@@H]4CC[C@H]3C1(C)C | inactive
3 | C[C@@H]([C@H]1CC[C@@]2(C)[C@@H]3CC[C@@H]4C(=CC3=CC[C@]12C)CC[C@H](N)C4(C)C)N(C)C | inactive
4 | CC(=O)O[C@H]1C[C@@H]2[C@H](CC[C@]3(C)[C@@H]([C@H](C)N(C)C)CC[C@@]23C)CC2=C[C@@H](O)[C@H](NC(=O)c3ccccc3)C(C)(C)[C@@H]21 | inactive
5 | CC(=O)O[C@H]1C[C@@H]2[C@@]3(CC4=C[C@@H](OC(C)=O)[C@H](NC(=O)c5ccccc5)C(C)(C)[C@@H]41)O[C@H]3C[C@]1(C)[C@@H]([C@H](C)N(C)C)CC[C@@]21C | 71%

tested on: Lemna minor; experiment: Phytotoxicity against Lemna minor L. at 5 ppm; assay type: functional

Row | Structure (SMILES) | Activity
6 | CC(=O)O[C@H]1C[C@@H]2[C@@]3(CC4=C[C@@H](O)[C@H](NC(=O)c5ccccc5)C(C)(C)[C@@H]41)O[C@H]3C[C@]1(C)[C@@H]([C@H](C)N(C)C)CC[C@@]21C | 57%
7 | CN[C@H]1CC[C@]23C[C@]24CC[C@]2(C)C(=O)CC[C@@]2(C)[C@@H]4CC[C@H]3C1(C)C | inactive
8 | C[C@@H]([C@H]1CC[C@@]2(C)[C@@H]3CC[C@@H]4C(=CC3=CC[C@]12C)CC[C@H](N)C4(C)C)N(C)C | inactive
9 | CC(=O)O[C@H]1C[C@@H]2[C@H](CC[C@]3(C)[C@@H]([C@H](C)N(C)C)CC[C@@]23C)CC2=C[C@@H](O)[C@H](NC(=O)c3ccccc3)C(C)(C)[C@@H]21 | inactive
10 | CC(=O)O[C@H]1C[C@@H]2[C@@]3(CC4=C[C@@H](OC(C)=O)[C@H](NC(=O)c5ccccc5)C(C)(C)[C@@H]41)O[C@H]3C[C@]1(C)[C@@H]([C@H](C)N(C)C)CC[C@@]21C | 57%

tested on: Lemna minor; experiment: Phytotoxicity against Lemna minor L. at 500 ppm; assay type: functional

Row | Structure (SMILES) | Activity
11 | CC(=O)O[C@H]1C[C@@H]2[C@@]3(CC4=C[C@@H](O)[C@H](NC(=O)c5ccccc5)C(C)(C)[C@@H]41)O[C@H]3C[C@]1(C)[C@@H]([C@H](C)N(C)C)CC[C@@]21C | 86%
12 | CN[C@H]1CC[C@]23C[C@]24CC[C@]2(C)C(=O)CC[C@@]2(C)[C@@H]4CC[C@H]3C1(C)C | inactive
13 | C[C@@H]([C@H]1CC[C@@]2(C)[C@@H]3CC[C@@H]4C(=CC3=CC[C@]12C)CC[C@H](N)C4(C)C)N(C)C | inactive
14 | CC(=O)O[C@H]1C[C@@H]2[C@H](CC[C@]3(C)[C@@H]([C@H](C)N(C)C)CC[C@@]23C)CC2=C[C@@H](O)[C@H](NC(=O)c3ccccc3)C(C)(C)[C@@H]21 | inactive
15 | CC(=O)O[C@H]1C[C@@H]2[C@@]3(CC4=C[C@@H](OC(C)=O)[C@H](NC(=O)c5ccccc5)C(C)(C)[C@@H]41)O[C@H]3C[C@]1(C)[C@@H]([C@H](C)N(C)C)CC[C@@]21C | 86%
